In US20230416225A1, “DIAMINOPYRIMIDINE CARBOXAMIDE INHIBITORS OF HPK1” (MERCK SHARP & DOHME LLC, priority 2020, published 2023):

Each molecule was assayed against T1, Human HPK1, catalytic domain (Homo sapiens, UniProt Q92918) (assay: HPK1-SLP76 TR-FRET assay). Conditions: 75 pM HPK1, 10 uM ATP, 10 nM SLP76, 30 min compound pre-incubation.
T1 construct: purchased Carna
T1 sequence (Q92918 1-346): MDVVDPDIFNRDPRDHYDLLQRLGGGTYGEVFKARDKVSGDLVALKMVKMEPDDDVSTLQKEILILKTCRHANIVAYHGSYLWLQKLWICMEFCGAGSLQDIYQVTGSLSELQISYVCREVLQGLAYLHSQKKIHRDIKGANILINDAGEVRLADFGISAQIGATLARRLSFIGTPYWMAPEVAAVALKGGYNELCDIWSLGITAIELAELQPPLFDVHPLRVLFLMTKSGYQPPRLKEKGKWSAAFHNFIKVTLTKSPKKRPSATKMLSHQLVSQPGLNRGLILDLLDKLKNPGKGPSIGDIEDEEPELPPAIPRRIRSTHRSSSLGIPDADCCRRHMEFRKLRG
Format: biochemical

| Compound | IC50 |
| --- | --- |
| COc1ccc2c(c1)C(Nc1nc(Nc3cc4c(cc3OC)CCN(C)C4)ncc1C(N)=O)CC2 (centres unmarked) [Example 26-69, 4-[(6-methoxy-2,3-dihydro-1H-inden-1-yl)amino]-2-[(6-methoxy-2-methyl-1,2,3,4-tetrahydroisoquinolin-7-yl)amino]pyrimidine-5-carboxamide] | 42.5 nM |
| COc1cc2c(cc1Nc1ncc(C(N)=O)c(N[C@@H]3CCCC[C@@H]3C)n1)CN(C)CC2 [Example 26-41, 2-[(6-methoxy-2-methyl-1,2,3,4-tetrahydroisoquinolin-7-yl)amino]-4-{[(1R,2S)-2-methylcyclohexyl]amino}pyrimidine-5-carboxamide] | 0.14 nM |
| COc1cc2c(cc1Nc1ncc(C(N)=O)c(Nc3ccc(C)cc3)n1)CN(C)CC2 [Example 7-24, 2-[(6-methoxy-2-methyl-1,2,3,4-tetrahydroisoquinolin-7-yl)amino]-4-[(4-methylphenyl)amino]pyrimidine-5-carboxamide] | 0.4 nM |
| CS(=O)(=O)c1ccc(Nc2ncc(C(N)=O)c(Nc3cccc4c3CCNC4=O)n2)cc1 [Example 7-48, 2-{[4-(methylsulfonyl)phenyl]amino}-4-[(1-oxo-1,2,3,4-tetrahydroisoquinolin-5-yl)amino]pyrimidine-5-carboxamide] | 1.29 nM |
| CNC(=O)c1cccc(Nc2nc(Nc3cc4c(cc3Cl)CCN(C)C4)ncc2C(N)=O)c1 [Example 7-39, 2-[(6-chloro-2-methyl-1,2,3,4-tetrahydroisoquinolin-7-yl)amino]-4-{[3-(methylcarbamoyl)phenyl]amino} pyrimidine-5-carboxamide] | 57.4 nM |
| COc1ccc(S(C)(=O)=O)cc1Nc1ncc(C(N)=O)c(Nc2cccc3c2CCN(C)C3)n1 [Example 7-61, 2-{[2-methoxy-5-(methylsulfonyl)phenyl]amino}-4-[(2-methyl-1,2,3,4-tetrahydroisoquinolin-5-yl)amino]pyrimidine-5-carboxamide] | 108 nM |
| COc1cc2c(cc1Nc1ncc(C(N)=O)c(Nc3cccc4c3CCN(CC(F)(F)F)C4)n1)CN(C)CC2 [Example 7-29, 2-[(6-methoxy-2-methyl-1,2,3,4-tetrahydroisoquinolin-7-yl)amino]-4-{[2-(2,2,2-trifluoroethyl)-1,2,3,4-tetrahydroisoquinolin-5-yl]amino}pyrimidine-5-carboxamide] | 0.35 nM |
| COc1cc2c(cc1Nc1ncc(C(N)=O)c(Nc3ccccc3C(F)(F)F)n1)C(C1CC1)N(C)CC2 (single isomer, unassigned) [Example 20-2, 2-((1-cyclopropyl-6-methoxy-2-methyl-1,2,3,4-tetrahydroisoquinolin-7-yl)amino)-4-((2-(trifluoromethyl)phenyl)amino)pyrimidine-5-carboxamide] | 0.12 nM |
| COc1cc2c(cc1Nc1ncc(C(N)=O)c(NC3CCN(C4CC4)C3)n1)CN(C)CC2 (centres unmarked) [Example 26-11, 4-[(1-cyclopropylpyrrolidin-3-yl)amino]-2-[(6-methoxy-2-methyl-1,2,3,4-tetrahydroisoquinolin-7-yl)amino]pyrimidine-5-carboxamide] | 26 nM |
| NC(=O)c1cnc(Nc2ccc3c(c2)COCC3)nc1Nc1cccc2c1CCNC2 [Example 7-16, 2-[(3,4-dihydro-1H-2-benzopyran-7-yl)amino]-4-[(1,2,3,4-tetrahydroisoquinolin-5-yl)amino]pyrimidine-5-carboxamide] | 0.14 nM |
| CCC(C)c1ccccc1Nc1nc(Nc2cc3c(cc2OC)CCN(C)C3)ncc1C(N)=O (centres unmarked) [Example 7-23, 4-{[2-(butan-2-yl)phenyl]amino}-2-[(6-methoxy-2-methyl-1,2,3,4-tetrahydroisoquinolin-7-yl)amino]pyrimidine-5-carboxamide] | 0.17 nM |
| NC(=O)c1cnc(Nc2cnn(CC(F)(F)F)c2)nc1Nc1cccc2c1CCNC2=O [Example 7-45, 4-[(1-oxo-1,2,3,4-tetrahydroisoquinolin-5-yl)amino]-2-{[1-(2,2,2-trifluoroethyl)-1H-pyrazol-4-yl]amino}pyrimidine-5-carboxamide] | 19.5 nM |
| COc1cc2c(cc1Nc1ncc(C(N)=O)c(Nc3c(F)cccc3C(F)(F)F)n1)CN(CC(C)(C)O)CC2 [Example 5-1, 4-((2-Fluoro-6-(trifluoromethyl)phenyl)amino)-2-((2-(2-hydroxy-2-methylpropyl)-6-methoxy-1,2,3,4-tetrahydroisoquinolin-7-yl)amino)pyrimidine-5-carboxamide] | 2.97 nM |
| COc1cc2c(cc1Nc1ncc(C(N)=O)c(NC3CCc4ccc(C)cc43)n1)CN(C)CC2 (centres unmarked) [Example 26-71, 2-[(6-methoxy-2-methyl-1,2,3,4-tetrahydroisoquinolin-7-yl)amino]-4-[(6-methyl-2,3-dihydro-1H-inden-1-yl)amino]pyrimidine-5-carboxamide] | 32.8 nM |
| Cc1cc(C)cc(Nc2ncc(C(N)=O)c(Nc3cccc4c3CCNC4=O)n2)c1 [Example 25-22, 2-[(3,5-dimethylphenyl)amino]-4-[(1-oxo-1,2,3,4-tetrahydroisoquinolin-5-yl)amino]pyrimidine-5-carboxamide] | 2.98 nM |
| COc1cc2c(cc1Nc1ncc(C(N)=O)c(NCc3cnc4ccccn34)n1)CN(C)CC2 [Example 26-56, 4-{[(imidazo[1,2-a]pyridin-3-yl)methyl]amino}-2-[(6-methoxy-2-methyl-1,2,3,4-tetrahydroisoquinolin-7-yl)amino]pyrimidine-5-carboxamide] | 777 nM |
| COc1cc2c(cc1Nc1ncc(C(N)=O)c(N[C@H]3C[C@H]4CC[C@@H](C3)N4C)n1)CN(C)CC2 [Example 26-26, 2-[(6-methoxy-2-methyl-1,2,3,4-tetrahydroisoquinolin-7-yl)amino]-4-{[(1R,3r,5S)-8-methyl-8-azabicyclo[3.2.1]octan-3-yl]amino}pyrimidine-5-carboxamide] | 3.31 nM |
| COc1cc2c(cc1Nc1ncc(C(N)=O)c(Nc3ccccc3-n3ccnn3)n1)CN(C)CC2 [Example 7-77, 2-[(6-methoxy-2-methyl-1,2,3,4-tetrahydroisoquinolin-7-yl)amino]-4-{[2-(1H-1,2,3-triazol-1-yl)phenyl]amino}pyrimidine-5-carboxamide] | 0.23 nM |
| NC(=O)c1cnc(Nc2ccc(F)c(C(F)(F)F)c2)nc1Nc1cccc2c1CCNC2=O [Example 25-37, 2-{[4-fluoro-3-(trifluoromethyl)phenyl]amino}-4-[(1-oxo-1,2,3,4-tetrahydroisoquinolin-5-yl)amino]pyrimidine-5-carboxamide] | 69 nM |
| COc1cc2c(cc1Nc1ncc(C(N)=O)c(Nc3c(C)noc3C)n1)CN(C)CC2 [Example 7-83, 4-((3,5-dimethylisoxazol-4-yl)amino)-2-((6-methoxy-2-methyl-1,2,3,4-tetrahydroisoquinolin-7-yl)amino)pyrimidine-5-carboxamide] | 4.84 nM |
| COc1cc2c(cc1Nc1ncc(C(N)=O)c(Nc3cccc4c3CCN(C)C4)n1)CN(C)CC2 [Example 16-1, 2-((6-methoxy-2-methyl-1,2,3,4-tetrahydroisoquinolin-7-yl)amino)-4-((2-methyl-1,2,3,4-tetrahydroisoquinolin-5-yl)amino)pyrimidine-5-carboxamide] | 0.09 nM |
| COc1cc(N2CCC(N3CCOCC3)CC2)ccc1Nc1ncc(C(N)=O)c(Nc2ccccc2Br)n1 [Example 7-116, 4-[(2-bromophenyl)amino]-2-({2-methoxy-4-[4-(morpholin-4-yl)piperidin-1-yl]phenyl}amino)pyrimidine-5-carboxamide] | 283 nM |
| COc1cc2c(cc1Nc1ncc(C(N)=O)c(N[C@H]3CC[C@@H](N(C)C)CC3)n1)CN(C)CC2 [Example 26-17, 4-{[cis-4-(dimethylamino)cyclohexyl]amino}-2-[(6-methoxy-2-methyl-1,2,3,4-tetrahydroisoquinolin-7-yl)amino]pyrimidine-5-carboxamide] | 60.2 nM |
| COc1cc2c(cc1Nc1ncc(C(N)=O)c(Nc3cc(F)ccc3F)n1)CN(C)CC2 [Example 4-11, 4-[(2,5-difluorophenyl)amino]-2-[(6-methoxy-2-methyl-1,2,3,4-tetrahydroisoquinolin-7-yl)amino]pyrimidine-5-carboxamide] | 0.55 nM |
| COc1cc2c(cc1Nc1ncc(C(N)=O)c(Nc3cccc4c3CCN(S(C)(=O)=O)C4)n1)CN(C)CC2 [Example 7-31, 2-[(6-methoxy-2-methyl-1,2,3,4-tetrahydroisoquinolin-7-yl)amino]-4-{[2-(methylsulfonyl)-1,2,3,4-tetrahydroisoquinolin-5-yl]amino}pyrimidine-5-carboxamide] | 0.15 nM |
| Cc1cccc(F)c1Nc1nc(Nc2c(C)n[nH]c2C)ncc1C(N)=O [Example 4-34, 2-[(3,5-dimethyl-1H-pyrazol-4-yl)amino]-4-[(2-fluoro-6-methylphenyl)amino] pyrimidine-5-carboxamide] | 65.1 nM |
| COc1cc2c(cc1Nc1ncc(C(N)=O)c(N[C@@H]3COC[C@H]3SC)n1)CN(C)CC2 [Example 26-8, 2-[(6-methoxy-2-methyl-1,2,3,4-tetrahydroisoquinolin-7-yl)amino]-4-{[(3R,4S)-4-(methylsulfanyl)oxolan-3-yl]amino}pyrimidine-5-carboxamide] | 0.95 nM |
| COc1c(F)cc(Nc2ncc(C(N)=O)c(Nc3cccc4c3CCNC4=O)n2)cc1F [Example 25-40, 2-[(3,5-difluoro-4-methoxyphenyl)amino]-4-[(1-oxo-1,2,3,4-tetrahydroisoquinolin-5-yl)amino]pyrimidine-5-carboxamide] | 38.7 nM |
| COc1cc2c(cc1Nc1ncc(C(N)=O)c(Nc3ccc(F)c(C#N)c3)n1)CN(C)CC2 [Example 7-26, 4-[(3-cyano-4-fluorophenyl)amino]-2-[(6-methoxy-2-methyl-1,2,3,4-tetrahydroisoquinolin-7-yl)amino]pyrimidine-5-carboxamide] | 15 nM |
